These results are taken from PMC6358909, “Synthesis and Biochemical Evaluation of Lid-Open D-Amino Acid Oxidase Inhibitors” (Molecules, 2019).

One assay has as its system DAAO. Details: method as in PMID 25001371. The settings on record: cited from earlier work.
In another assay the target is hDAO (Homo sapiens, UniProt P14920). Put plainly: Differential scanning fluorimetry (DSF) measurement. Format: binding. The settings on record: for Tm: hDAO without inhibitor 59.4 °C; for ~ΔTm: shift versus hDAO without inhibitor. As to the method:
We started with compounds 8 and 9 (Figure 3). […] The activity of this 3-Cl substituted derivative (11) was lower than 100 nM therefore we synthesized the 3-Me derivative (12). […] DAAO binding and activity of representative compounds have been confirmed in orthogonal differential scanning fluorometry (DSF) and the coupled Horseradish peroxidase (HRP)/Amplex Red assays, respectively (see Supplementary materials). The designed compounds were docked into the protein structure obtained from the complex of 8 by the removal of the ligand. […]
Scheme S4. Synthesis of the headgroup […]
Results from differential scanning fluorimetry (DSF) measurements
Compound Structure DSF measurement […]
(Differential scanning fluorimetry follows unfolding on heating by fluorescence.)

Another assay has as its target T1, Human DAAO (Homo sapiens, UniProt P14920).
T1 construct: purchased TargetEx Ltd. (Dunakeszi, Hungary)
Put plainly: KYNA enzyme inhibition assay (D-kynurenine substrate, fluorescence). Format: biochemical. The note with it: 5 µM FAD, pH 8, 37 °C 1 h, standard deviations in parenthesis. Here is the method: The prepared compounds were tested as DAAO inhibitors with the KYNA enzyme inhibitory assay. Although D-serine is a natural substrate of DAAO, its metabolite is not suitable for fluorometric evaluation. However in the applied assay, D-kynurenine can be metabolized by DAAO [19] and the metabolite (KYNA) has a favorable fluorescence property. Thus it can be used for fluorescence measurements.
D-2-Amino-4-(2-aminophenyl)-4-oxobutanoic acid (D-KYN) was used to measure D-amino acid oxidase activity based on the protocol described in ref. [18, 20]. Human DAAO (purchased from TargetEx Ltd. (Dunakeszi, Hungary)) was used for the measurements. The buffer contained 20 mM TRIS-HCl and 100 mM NaCl (pH = 8). Flavin adenine dinucleotide (FAD—obtained from Sigma (St. Louis, MO, USA)) in 5 µM concentration was also included in the assay. Compounds were dissolved originally in DMSO and the measured samples were diluted with the buffer solution (the final DMSO concentration was always below 5%). The mixed solution was incubated at 37 °C for 1 h. After the enzymatic reaction, ZnCl2 dissolved in H2O was added and vortex-mixed. Single point measurements were performed at 20 µm inhibitor concentration. For the IC50 measurements, the inhibitors were used at 5 nM, 50 nM, 500 nM, 2.5 µM, 5 µM, 10 µM, 50 µM. Measurements were carried out on a Citation3 cell imaging multi-mode microplate reader (BioTek Instruments Inc., Winooski, VT, USA) with […]. The applied wavelengths were 340 nm and 396 nm.
Result from the coupled HRP/Amplex Red assay for compound 13
Compound 13 was evaluated in both the KYNA and the coupled HRP/Amplex red assays. Assay […]
HRP/Amplex assay KYNA assay […]
hDAAO original concentration 1 µg / 1500 µL buffer 1 µg / 400 µL buffer hDAAO assay concentration 0.25 µg / 1500 µL buffer 0.25 µg / 400 µL buffer FAD conc. in assay 5 µM 5 µM
Ligand conc. in assay 20 µM 20 µM
Incubation period No Yes (1 hour, 37 °C)
Type of the measurement Kinetic (45 min) single point detection
Detection fluorescent fluorescent
Assay interference Yes No
Ligand autofluorescence No No
Dose response curve obtained for compound 13 using the HRP/Amplex red assay
(1 picture or pasted object on this page, not shown here)

T1 sequence (P14920 whole entry): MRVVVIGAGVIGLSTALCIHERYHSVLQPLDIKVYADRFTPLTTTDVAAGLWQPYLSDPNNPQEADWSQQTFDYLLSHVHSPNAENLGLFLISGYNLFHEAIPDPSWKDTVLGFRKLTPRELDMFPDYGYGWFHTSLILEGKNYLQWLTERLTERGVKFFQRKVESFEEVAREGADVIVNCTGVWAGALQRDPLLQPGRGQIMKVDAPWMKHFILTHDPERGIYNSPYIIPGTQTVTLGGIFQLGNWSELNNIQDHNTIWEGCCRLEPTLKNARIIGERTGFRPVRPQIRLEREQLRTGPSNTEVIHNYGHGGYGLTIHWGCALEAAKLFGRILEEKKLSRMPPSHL
Chain of hDAO (P14920 whole entry): as above

For the molecule `O=C(O)CCc1cc2c(-c3ccccc3)cc(=O)oc2cc1O` [Compound 7], the “competitive D-serine inhibitory properties” value with DAAO is reported as “low nanomolar range”.

With `O=c1cc(-c2ccccc2)c2cc(CCc3cc(O)c(=O)[nH]n3)c(O)cc2o1` [Compound 8, reference compound], on hDAO, the Tm was found to be 74.7 °C and the “~ΔTm” value was roughly 15.3 °C. Further, the IC50 at Human DAAO stood at 112 nM.

For the molecule `O=c1cc(-c2ccc(Cl)cc2)c2cc(CCc3cc(O)c(=O)[nH]n3)c(O)cc2o1` [Compound 9], at Human DAAO, the IC50 came out at 119 nM.

For `Cc1ccc(-c2cc(=O)oc3cc(O)c(CCc4cc(O)c(=O)[nH]n4)cc23)cc1` [Compound 10], on Human DAAO, the IC50 amounted to 474 nM.

Turning to `O=c1cc(-c2cccc(Cl)c2)c2cc(CCc3cc(O)c(=O)[nH]n3)c(O)cc2o1` [Compound 11], the IC50 on Human DAAO is 69 nM.

For the molecule `Cc1cccc(-c2cc(=O)oc3cc(O)c(CCc4cc(O)c(=O)[nH]n4)cc23)c1` [Compound 12], the IC50 at Human DAAO was 52 nM.

Consider `COc1cccc(-c2cc(=O)oc3cc(O)c(CCc4cc(O)c(=O)[nH]n4)cc23)c1` [Compound 13], for which, on hDAO, the Tm was determined as 72.0 °C and the “~ΔTm” value is roughly 12.6 °C. Moreover, at Human DAAO, the IC50 worked out at 73 nM.

Usually Tm stands for the temperature at which the thermal transition is half complete. A word on the IC50: it is the point on the concentration scale where inhibition reaches its midpoint.
